Values of other authors, collected in US12715832B2, “Co-crystal of coenzyme QH and nicotinamide, preparation method therefor and use thereof” (COCRYSTAL TECHNOLOGY (JIAXING) CO., LTD, priority 2021, dated 2026).

Conditions: in the air at 25° C. for 28 days

COc1c(O)c(C)c(C/C=C(\C)CC/C=C(\C)CC/C=C(\C)CC/C=C(\C)CC/C=C(\C)CC/C=C(\C)CC/C=C(\C)CC/C=C(\C)CC/C=C(\C)CCC=C(C)C)c(O)c1OC [stable polymorph of coenzyme QH, coenzyme QH]
coenzyme QH oxidized: about 6%
